Converted amounts (≈) assume the structure as drawn. The source made the active and inactive calls. No cut-off for these calls is given here.

Assay [1] can be described thus: Cytotoxicity against human PC3 cells after 72 hrs by XTT assay. The format is functional, cell-based. The following applies: PC-3, 72 h. (In general: Tetrazolium assays rely on reduction of a dye to a coloured formazan, in cell work by metabolically active cells.)
Assay [2] concerns A549. The experiment in a line: Cytotoxicity against human A549 cells after 72 hrs by XTT assay. In kind it is functional, cell-based. Particulars: A549, 72 h.
For assay [3], the system named is Bacillus subtilis. Description: Antimicrobial activity against Bacillus subtilis MTCC 121 after 24 hrs by well diffusion method. The format is functional. Particulars: MTCC 121, 24 h. (In general: A growth-free zone around the sample is the usual read-out of agar diffusion tests.)
Assay [4] concerns Raoultella planticola. The experiment in a line: Antibiofilm activity against Klebsiella planticola MTCC 530 after 24 hrs by crystal violet staining based assay. In kind it is functional, organism-based. The following applies: MTCC 530, 24 h.
Assay [5] deals with Micrococcus luteus. The experiment in a line: Bactericidal activity against Micrococcus luteus MTCC 2470 after 24 hrs by serial dilution method. The following applies: MTCC 2470, 24 h. In kind it is functional.
For assay [6], the system named is Staphylococcus aureus. The experiment in a line: Antibiofilm activity against Staphylococcus aureus MTCC 96 after 24 hrs by crystal violet staining based assay. Particulars: MTCC 96, 24 h. In kind it is functional, organism-based.
For assay [7], the system named is Staphylococcus aureus. Description: Antimicrobial activity against Staphylococcus aureus MLS16 MTCC 2940 after 24 hrs by well diffusion method. Particulars: MLS16 MTCC 2940, 24 h. In kind it is functional.
For assay [8], the system named is Staphylococcus aureus. The experiment in a line: Bactericidal activity against Staphylococcus aureus MTCC 96 after 24 hrs by serial dilution method. In kind it is functional. The following applies: MTCC 96, 24 h.
The subject of assay [9] is Micrococcus luteus. Description: Antibiofilm activity against Micrococcus luteus MTCC 2470 after 24 hrs by crystal violet staining based assay. In kind it is functional, organism-based. The following applies: MTCC 2470, 24 h.
The subject of assay [10] is Raoultella planticola. The experiment in a line: Antimicrobial activity against Klebsiella planticola MTCC 530 after 24 hrs by well diffusion method. The format is functional. The following applies: MTCC 530, 24 h.
Assay [11] relates to Raoultella planticola. The experiment in a line: Bactericidal activity against Klebsiella planticola MTCC 530 after 24 hrs by serial dilution method. The format is functional. Particulars: MTCC 530, 24 h.
The subject of assay [12] is Candida albicans. The experiment in a line: Antimicrobial activity against Candida albicans MTCC 3017 after 24 hrs by well diffusion method. The format is functional.
Assay [13] relates to Staphylococcus aureus. The experiment in a line: Antimicrobial activity against Staphylococcus aureus MTCC 96 after 24 hrs by well diffusion method. The format is functional. Particulars: MTCC 96, 24 h.
For assay [14], the system named is Escherichia coli. Description: Antimicrobial activity against Escherichia coli MTCC 739 after 24 hrs by well diffusion method. The following applies: MTCC 739, 24 h. The format is functional.
The test system of assay [15] is Bacillus subtilis. The experiment in a line: Bactericidal activity against Bacillus subtilis MTCC 121 after 24 hrs by serial dilution method. The format is functional. The following applies: MTCC 121, 24 h.
For assay [16], the system named is Micrococcus luteus. Description: Antimicrobial activity against Micrococcus luteus MTCC 2470 after 24 hrs by well diffusion method. In kind it is functional. Particulars: MTCC 2470, 24 h.
In assay [17] the test system is Staphylococcus aureus. Description: Bactericidal activity against Staphylococcus aureus MLS16 MTCC 2940 after 24 hrs by serial dilution method. Particulars: MLS16 MTCC 2940, 24 h. The format is functional.
Assay [18] relates to Pseudomonas aeruginosa. The experiment in a line: Antimicrobial activity against Pseudomonas aeruginosa MTCC 2453 after 24 hrs by well diffusion method. In kind it is functional. Particulars: MTCC 2453, 24 h.
In assay [19] the test system is Bacillus subtilis. Description: Antibiofilm activity against Bacillus subtilis MTCC 121 after 24 hrs by crystal violet staining based assay. In kind it is functional, organism-based. Particulars: MTCC 121, 24 h.
In assay [20] the test system is Staphylococcus aureus. Description: Antibiofilm activity against Staphylococcus aureus MLS16 MTCC 2940 after 24 hrs by crystal violet staining based assay. The format is functional, organism-based. Particulars: MLS16 MTCC 2940, 24 h.

As usually defined, the IC50 is the point on the concentration scale where inhibition reaches its midpoint. A low value points to higher potency. On to `O=C1C=CC(=O)C(c2cc(-c3ccc(C(=O)N4CCCCC4)s3)on2)=C1`, for which the IC50 in [1] and in [2] was greater than 30 µM throughout.
What is called MIC is the least concentration at which growth counts as inhibited. What is called MBC is the lowest tested concentration that kills the bacteria rather than only halting them. Higher therefore signals weaker bactericidal potency. In the case of `O=C(O)c1cn(C2CC2)c2cc(N3CCNCC3)c(F)cc2c1=O` [CIPROFLOXACIN], the MIC in assay [3], in assay [7], in [10], in assay [13], in [14] and in assay [16] was 0.9 µg/mL (≈ 2.72 µM) in each case. The compound also displayed an MIC in [18] of 0.9 µg/mL (≈ 2.72 µM). Further, the IC50 in assay [4] amounted to 0.6 µM; in assay [6], 0.7 µM; in assay [9], 0.8 µM. The MBC in assay [5] worked out at 0.9 µg/mL (≈ 2.72 µM); in assay [8], 0.9 µg/mL (≈ 2.72 µM); in [11], 1.9 µg/mL (≈ 5.73 µM); in assay [15], 1.9 µg/mL (≈ 5.73 µM); in assay [17], 1.9 µg/mL (≈ 5.73 µM). Also, in assay [12], the MIC entry was “inactive”.
As for `CCN(CC)C(=O)c1ccc(-c2cc(-c3cc(OC)ccc3OC)no2)s1`, the values for the IC50 in [1] and in [2] were greater than 30 µM and 11 µM, respectively.
With `COc1ccc(OC)c(-c2cc(-c3ccc(C(=O)NCC4CC4)s3)on2)c1`, the IC50 in assay [1] and in assay [2] was greater than 30 µM each time.
Turning to `COc1ccc(CN(C)C(=O)c2ccc(-c3cc(-c4cc(OC)ccc4OC)no3)s2)cc1`, the IC50 in [1] and in [2] was greater than 30 µM each time.
Consider `O=C1C=CC(=O)C(c2cc(-c3ccc(C(=O)N4CCC(C(F)(F)F)CC4)s3)on2)=C1`, for which the IC50 in [1] and in assay [2] was greater than 30 µM each time.
On to `COc1ccc(CN(C)C(=O)c2ccc(-c3cc(C4=CC(=O)C=CC4=O)no3)s2)cc1`, for which the results for the IC50 in [1] and in [2] were less than 30 µM and greater than 30 µM, respectively.
On to `COc1ccc(OC)c(-c2cc(-c3ccc(C(=O)N4CCCC4)s3)on2)c1`, for which the IC50 in [1] and in assay [2] was greater than 30 µM each time.
Regarding `CN(C)C(=O)c1ccc(-c2cc(C3=C(N4CC4)C(=O)C=C(N4CC4)C3=O)no2)s1`, the minimum inhibitory concentration (MIC) in [3] is 3.9 µg/mL (≈ 9.5 µM); in assay [7], 15.6 µg/mL (≈ 38 µM); in assay [10], 7.8 µg/mL (≈ 19 µM); in assay [12] (MTCC 3017, 24 h), 15.6 µg/mL (≈ 38 µM); in assay [13], 15.6 µg/mL (≈ 38 µM); in assay [14] it was greater than 125 µg/mL. Moreover, the MIC in assay [16] was 62.5 µg/mL (≈ 152 µM); in assay [18] it was greater than 125 µg/mL. The IC50 was 6.1 µM in [4]; 9.8 µM in [6]; 38.9 µM in assay [9]; greater than 30 µM in assay [1]; 2.2 µM in assay [19]; 10.1 µM in assay [20]. Moreover, the midpoint of inhibition in assay [2], the IC50, lay at 1.5 µM. Also, the MBC stood at 125 µg/mL (≈ 305 µM) in [5]; 31.2 µg/mL (≈ 76 µM) in [8]; 31.2 µg/mL (≈ 76 µM) in assay [11]; 7.8 µg/mL (≈ 19 µM) in [15]; 31.2 µg/mL (≈ 76 µM) in assay [17].
As for `COc1ccc(OC)c(-c2cc(-c3ccc(C(=O)N(C)Cc4ccc(F)cc4)s3)on2)c1`, the IC50 in assay [1] and in assay [2] was greater than 30 µM in each case.
As to `CN(Cc1ccc(F)cc1)C(=O)c1ccc(-c2cc(C3=CC(=O)C=CC3=O)no2)s1`, the IC50 in assay [1] and in assay [2] was greater than 30 µM in each case.
Consider `COc1ccc(OC)c(-c2cc(-c3ccc(C(=O)N(C)Cc4ccccc4)s3)on2)c1`, for which the IC50 in assay [1] and in assay [2] was greater than 30 µM each time.
As to `O=C1C=C(N2CC2)C(=O)C(c2cc(-c3ccc(C(=O)N4CCC(C(F)(F)F)CC4)s3)on2)=C1N1CC1`, the MIC in assay [3] is 3.9 µg/mL (≈ 7.52 µM); in assay [7], greater than 125 µg/mL; in [10], greater than 125 µg/mL; in assay [12] (MTCC 3017, 24 h) it was 31.2 µg/mL (≈ 60.2 µM); in assay [13] it was greater than 125 µg/mL; in assay [14], greater than 125 µg/mL. Also, the MIC in assay [16] was 31.2 µg/mL (≈ 60.2 µM); in assay [18], greater than 125 µg/mL. The MBC in assay [5] is 62.5 µg/mL (≈ 121 µM); in assay [8] it was greater than 125 µg/mL; in [11], greater than 125 µg/mL; in [15], 7.8 µg/mL (≈ 15 µM); in [17], greater than 125 µg/mL. For the same compound, the IC50 in assay [9] amounted to 16.2 µM; in assay [1], 2 µM; in assay [19], 2.1 µM; in [2] it was 3.7 µM.
Consider `O=C1C=CC(=O)C(c2cc(-c3ccc(C(=O)N4CCCC4)s3)on2)=C1`, for which the IC50 in assay [1] is less than 30 µM; in assay [2], greater than 30 µM.
With `CN(Cc1ccccc1)C(=O)c1ccc(-c2cc(C3=CC(=O)C=CC3=O)no2)s1`, the IC50 in assay [1] was 11 µM; in [2], greater than 30 µM.

The values are drawn from ChEMBL document CHEMBL3808371, “Design, synthesis and biological evaluation of diaziridinyl quinone isoxazole hybrids” (Eur J Med Chem, 2016).
